Changes are numbered by the printed parent chain.
Tests used:
[1] = test system: HBP-induced increase in EC permeability; experiment: Inhibition of HBP-induced increase in EC permeability; format: cell-based, human, bovine; settings: aprotinin 100 μg/ml, 30 min pre-incubation; HBP 75 μg/ml; N=6
Excerpt: Alternatively, HBP antagonists may be detected by culturing endothelial cells in the presence of HBP and in the presence and absence of a substance suspected of being an antagonist. In a specific embodiment, the antagonist is a monoclonal antibody that binds to at least one epitope of HBP, preferably human HBP, wherein said epitope binds to prekallikrein-H-kininogen complex and activates release of bradykinin. In a preferred embodiment, the monoclonal antibody is a human monoclonal antibody. In one embodiment, the antibody and HBP are preincubated together before incubating with endothelial cells for about 10 minutes at 37° C. The effect of the substance on the permeability of endothelial cells is determined by measuring transendothelial electrical resistance or determining albumin clearance as described in the Examples, infra. A decrease in permeability would indicate that the substance does act as an HBP antagonist.
For measurement of electrical resistance across the EC monolayer, the filter insert is transferred to a resistance measurement chamber (ENDOHM-12; World Precision Instruments, Sarasota, Fla., USA) modified so as to assure exact positioning of the electrodes in relation to each other and to the filter insert during repeated measurements. The chamber (lower compartment) and the filter insert (upper compartment) are filled with 2 ml and 400 μl culture medium, respectively. […] Direct readings of the electrical resistance are given by an ohmmeter (EVOM; World Precision Instruments, Sarasota, Fla., USA) connected to the electrodes of the resistance chamber. The electrical resistance of individual EC monolayers is obtained by subtracting the resistance of the corresponding naked filter coated with Biomatrix as measured prior to seeding of the endothelial cells.
Evans blue dye-conjugated albumin (EBA) is used as a marker for macromolecular permeability of the EC monolayers. […] In experiments where albumin permeability is analyzed, the culture medium in the upper compartment is exchanged for medium containing EBA. […]

[2] = test system: bradykinin-induced increase in EC permeability; experiment: Inhibition of bradykinin-induced increase in EC permeability; format: cell-based, human, bovine; settings: aprotinin 100 μg/ml; subsequent bradykinin 100 nM
Experimental: For measurement of electrical resistance across the EC monolayer, the filter insert is transferred to a resistance measurement chamber (ENDOHM-12; World Precision Instruments, Sarasota, Fla., USA) modified so as to assure exact positioning of the electrodes in relation to each other and to the filter insert during repeated measurements. The chamber (lower compartment) and the filter insert (upper compartment) are filled with 2 ml and 400 μl culture medium, respectively. All measurements are made at 37° C. with the equipment placed in a cell culture incubator. Direct readings of the electrical resistance are given by an ohmmeter (EVOM; World Precision Instruments, Sarasota, Fla., USA) connected to the electrodes of the resistance chamber. The electrical resistance of individual EC monolayers is obtained by subtracting the resistance of the corresponding naked filter coated with Biomatrix as measured prior to seeding of the endothelial cells.
Before transferring the filter inserts to the resistance measurement chamber (kept at 37° C.), the medium in the insert and in the chamber is replaced with fresh culture medium (37° C.) supplemented with 10 mM Hepes. HBP (25-100 μg/ml) or PMN secretion product is added either to the upper or the lower compartment and change in transendothelial electrical resistance is measured every minute until a plateau phase is reached, and thereafter at 5-min intervals. In separate experiments, PMNs (2×10^6) preincubated with mAb IB4 (10 μg/ml) are added to the upper compartment (PMN:EC ratio=10:1) and allowed to sediment for 10 min. Activation of the PMNs is induced through antibody crosslinking of leukocytic CD18 by addition of goat anti-mouse IgG F(ab′)2 diluted 1:20. In experiments where albumin permeability across the EC monolayer is studied, the medium in the insert contained EBA. During the experiment, the filter insert is moved at 5-10 min intervals to new wells containing fresh medium. All incubations are made at 37° C. After the experiment, the medium in the lower wells is aspirated and analyzed for EBA content.

[3] = 3H-LPS binding to HBP, scintillation proximity assay; settings: up to 50 mM unlabeled BPTI
Experimental: The affinity for lipopolysaccharide (3H-LPS) is measured by scintillation proximity assay technology (SPA) as described (Linde, V., Bjørn, S., Kastrup, J. S., and Flodgaard, H., 2000, Biotechniques 28:218-222). All samples are repeated in triplicates.

HBP mutant (G175N) = target: T1, HBP mutant (G175N) (Homo sapiens, UniProt P20160, G201N); experiment: Aprotinin effect on leakage induced by HBP mutant (G175N); format: cell-based; settings: leakage model
T1 sequence (P20160 27-248 G201N): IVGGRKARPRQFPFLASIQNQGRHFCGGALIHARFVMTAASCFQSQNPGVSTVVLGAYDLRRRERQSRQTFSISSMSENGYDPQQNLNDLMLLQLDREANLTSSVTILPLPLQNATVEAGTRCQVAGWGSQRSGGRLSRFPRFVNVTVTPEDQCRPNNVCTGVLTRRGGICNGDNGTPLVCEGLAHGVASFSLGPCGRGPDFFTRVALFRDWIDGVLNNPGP

HBP = target: T2, HBP (Homo sapiens, UniProt P20160); settings: cited from earlier work
T2 sequence (P20160 27-248): T1 sequence (P20160 27-248 G201N) with N175G

[4] = after cardiac operations; cited from earlier work
[5] = test system: kallikrein-C1-inhibitor and C1-C1-inhibitor complexes; settings: cited from earlier work
endothelial cell = settings: hypoxic cold storage in organ preservation solutions; cited from earlier work
vascular permeability = settings: cited from earlier work

Substance: aprotinin
- effect on HBP-induced increase in EC permeability [1]: largely prevented
- effect on bradykinin-induced permeability change [2]: but not the permeability change induced by subsequent administration of bradykinin
- competition for 3H-LPS binding to native HBP [3]: no inhibitory effects
- effect of aprotinin on mutant-induced leakage (HBP mutant (G175N)): no inhibitory effect
- Kd (HBP): 100 nM
- blood loss [4]: reduces blood loss
- postoperative bleeding time [4]: decreases the elevated postoperative bleeding time
- kallikrein-C1-inhibitor and C1-C1-inhibitor complexes [5]: decrease
- endothelial cell viability (endothelial cell): increases endothelial cell viability
- vascular permeability and neutrophil count (vascular permeability): decreased this vascular permeability and neutrophil count

— US20080279856A1, “Inhibition of Bradykinin Release” (Novo Nordisk Pharmaceuticals, Inc., priority 1999, published 2008)
